Consider 29 molecules from US9187465B2, “Oxazole tyrosine kinase inhibitors” (Sareum Limited, priority 2007, dated 2015).

The target of one assay is T1, human Aurora A (Homo sapiens, UniProt O14965).
T1 construct: Histidine tag (N); host or cells: Sf9 insect cells (baculovirus)
T1 sequence (O14965 1-403): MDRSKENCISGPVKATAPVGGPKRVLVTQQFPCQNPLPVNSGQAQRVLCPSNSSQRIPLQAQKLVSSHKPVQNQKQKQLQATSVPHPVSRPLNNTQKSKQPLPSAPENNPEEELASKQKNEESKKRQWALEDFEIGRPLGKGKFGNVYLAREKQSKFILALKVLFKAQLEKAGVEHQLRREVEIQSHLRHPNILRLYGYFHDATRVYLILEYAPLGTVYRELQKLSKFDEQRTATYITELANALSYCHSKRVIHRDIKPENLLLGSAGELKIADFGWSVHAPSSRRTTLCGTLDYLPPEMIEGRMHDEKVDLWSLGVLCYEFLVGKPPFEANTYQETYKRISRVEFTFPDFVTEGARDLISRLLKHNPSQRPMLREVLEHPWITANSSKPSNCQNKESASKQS
Put plainly: Aurora A kinase assay (DELFIA enzyme inhibition). Type of assay: biochemical. The gist of the method:
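DELFIA read-out (time-resolved Eu fluorescence, 620 nm emission) after Neutravidin capture of biotinylated peptide substrate and antibody detection. Reaction: Ni-agarose-purified Aurora A, 30 min at room temperature, stopped with 100 mM EDTA.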

In another assay the target is T2, human FLT4 (Homo sapiens, UniProt P35916).
T2 construct: a construct expressing the human FLT4 (789-1207) with an amino terminal GST tag; host or cells: Sf9 insect cells (baculovirus)
Put plainly: FLT4 kinase assay (DELFIA enzyme inhibition). Type of assay: biochemical. The gist of the method:
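GST-tagged human FLT4 (789-1207) from Sf9 cells phosphorylates a biotinylated MET (Tyr1253)-derived peptide for 30 min at room temperature, stopped with EDTA. Phosphopeptide is captured on Neutravidin and detected with Eu-labelled anti-phosphotyrosine antibody by time-resolved fluorescence; IC50 from % inhibition curves.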

Like-named read-outs stand apart in the source and are kept apart here. A value given as a limit tells only on which side of the number the result lay.

By IC50 is commonly meant the point on the concentration scale where inhibition reaches its midpoint.

T2 sequence (P35916 789-1207): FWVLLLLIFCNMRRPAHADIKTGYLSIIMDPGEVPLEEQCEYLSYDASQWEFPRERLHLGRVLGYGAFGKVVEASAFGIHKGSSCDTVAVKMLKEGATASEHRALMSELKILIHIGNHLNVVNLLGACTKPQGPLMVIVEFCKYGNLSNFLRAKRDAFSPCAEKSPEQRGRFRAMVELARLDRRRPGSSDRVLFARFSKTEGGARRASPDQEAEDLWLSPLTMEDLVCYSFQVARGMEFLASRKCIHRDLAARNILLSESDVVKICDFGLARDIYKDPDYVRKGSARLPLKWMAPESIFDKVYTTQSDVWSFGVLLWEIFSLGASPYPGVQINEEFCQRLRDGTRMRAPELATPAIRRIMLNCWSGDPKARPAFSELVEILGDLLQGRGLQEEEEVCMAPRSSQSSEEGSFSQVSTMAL

For `CN1CCN(c2ccc(Nc3oc(-c4c(F)cccc4F)nc3C(N)=O)cn2)CC1` [Example Q-49, 2-(2,6-difluorophenyl)-5-(6-(4-methylpiperazin-1-yl)pyridin-3-ylamino)oxazole-4-carboxamide], the IC50 on human Aurora A (read-out: Aurora A IC50) and at human FLT4 (read-out: FLT4 IC50) was < 10 µM in each case.

On to `NC(=O)c1nc(-c2c(F)cccc2F)oc1Nc1ccc(C(=O)NCC2CCNCC2)cc1` [Example Q-50, 5-(4-((piperidin-4-ylmethyl)carbamoyl)phenylamino)-2-(2,6-difluorophenyl)oxazole-4-carboxamide], for which the IC50 at human Aurora A (read-out: Aurora A IC50) and on human FLT4 (read-out: FLT4 IC50) was < 10 µM throughout.

As for `NCCCNC(=O)c1ccc(Nc2oc(-c3c(F)cccc3F)nc2C(N)=O)cc1` [Example Q-51, 5-(4-((3-aminopropyl)carbamoyl)phenylamino)-2-(2,6-difluorophenyl)oxazole-4-carboxamide], the IC50 on human Aurora A (read-out: Aurora A IC50) and on human FLT4 (read-out: FLT4 IC50) was < 10 µM throughout.

`NCCNC(=O)c1ccc(Nc2oc(-c3c(F)cccc3F)nc2C(N)=O)cc1` [Example Q-52, 5-(4-((2-aminoethyl)carbamoyl)phenylamino)-2-(2,6-difluorophenyl)oxazole-4-carboxamide]: the IC50 at human Aurora A (read-out: Aurora A IC50) and on human FLT4 (read-out: FLT4 IC50) was < 10 µM in each case.

As to `NC(=O)c1nc(-c2c(F)cccc2F)oc1Nc1ccc(C(=O)N[C@@H]2CCCNC2)cc1` [Example Q-53, (R)-2-(2,6-difluorophenyl)-5-(4-(piperidin-3-ylcarbamoyl)phenylamino)oxazole-4-carboxamide], the IC50 at human Aurora A (read-out: Aurora A IC50) and at human FLT4 (read-out: FLT4 IC50) was < 10 µM each time.

As for `NC(=O)c1nc(-c2c(F)cccc2F)oc1Nc1ccc(C(=O)N[C@H]2CCCNC2)cc1` [Example Q-54, (S)-2-(2,6-difluorophenyl)-5-(4-(piperidin-3-ylcarbamoyl)phenylamino)oxazole-4-carboxamide], the IC50 on human Aurora A (read-out: Aurora A IC50) and on human FLT4 (read-out: FLT4 IC50) was < 10 µM each time.

As for `NC(=O)c1nc(-c2c(F)cccc2F)oc1Nc1ccc(C(=O)NC[C@@H]2CCCNC2)cc1` [Example Q-55, (R)-5-(4-((piperidin-3-ylmethyl)carbamoyl)phenylamino)-2-(2,6-difluorophenyl)oxazole-4-carboxamide], the IC50 on human Aurora A (read-out: Aurora A IC50) and at human FLT4 (read-out: FLT4 IC50) was < 10 µM in each case.

For `NC(=O)c1nc(-c2cccc3[nH]ncc23)oc1Nc1ccc(N2CCNCC2)cc1` [Example Q-59, 2-(1H-indazol-4-yl)-5-(4-(piperazin-1-yl)phenylamino)oxazole-4-carboxamide], the IC50 on human Aurora A (read-out: Aurora A IC50) and at human FLT4 (read-out: FLT4 IC50) was < 10 µM in each case.

For `COc1ccc(Nc2nc(C(N)=O)c(-c3ccc(OC)cc3)o2)cc1` [Example R-4, 5-(4-methoxyphenyl)-2-(4-methoxyphenylamino)oxazole-4-carboxamide], the values for the 50% inhibitory concentration (IC50) on human Aurora A (read-out: Aurora A IC50) and on human FLT4 (read-out: FLT4 IC50) were < 100 µM and < 10 µM, respectively.

As to `COc1ccc(-c2oc(Nc3cccc(C)c3)nc2C(N)=O)cc1` [Example R-6, 2-(m-toluidino)-5-(4-methoxyphenyl)oxazole-4-carboxamide], the IC50 at human Aurora A (read-out: Aurora A IC50) and on human FLT4 (read-out: FLT4 IC50) was < 10 µM in each case.

With `Cc1ccccc1Nc1nc(C(N)=O)c(-c2ccc(N3CCNCC3)cc2)o1` [Example R-10, 2-(o-toluidino)-5-(4-(piperazin-1-yl)phenyl)oxazole-4-carboxamide], the half-inhibitory concentration (IC50) on human Aurora A (read-out: Aurora A IC50) and at human FLT4 (read-out: FLT4 IC50) was < 10 µM throughout.

Consider `NC(=O)c1nc(Nc2ccnn2Cc2ccccc2)oc1-c1ccc(N2CCNCC2)cc1` [Example R-18, 2-(1-benzyl-1H-pyrazol-5-ylamino)-5-(4-(piperazin-1-yl)phenyl)oxazole-4-carboxamide], for which the IC50 on human Aurora A (read-out: Aurora A IC50) and at human FLT4 (read-out: FLT4 IC50) was < 10 µM throughout.

Turning to `NC(=O)c1nc(-c2c(F)cccc2F)oc1-c1ccc(OCC2CCNCC2)cc1` [Example S-14, 2-(2,6-difluorophenyl)-5-(4-(piperidin-4-ylmethoxy)phenyl)oxazole-4-carboxamide], the IC50 at human Aurora A (read-out: Aurora A IC50) and on human FLT4 (read-out: FLT4 IC50) was < 10 µM in each case.

`NC(=O)c1nc(-c2c(F)cccc2F)oc1-c1ccc(OCC2CNCCO2)cc1` (stereo not shown) [Example S-15, 2-(2,6-difluorophenyl)-5-(4-(morpholin-2-ylmethoxy)phenyl)oxazole-4-carboxamide]: the IC50 on human Aurora A (read-out: Aurora A IC50) and on human FLT4 (read-out: FLT4 IC50) was < 10 µM throughout.

For `CCCN(CCO)CCOc1ccc(-c2oc(-c3c(F)cccc3F)nc2C(N)=O)cc1` [Example S-16, 2-(2,6-difluorophenyl)-5-(4-(2-((2-hydroxyethyl)(propyl)amino)ethoxy)phenyl)oxazole-4-carboxamide], the half-maximal inhibitory concentration (IC50) on human Aurora A (read-out: Aurora A IC50) and on human FLT4 (read-out: FLT4 IC50) was < 10 µM each time.

Take `NC(=O)c1nc(-c2c(F)cccc2F)oc1-c1ccc(OCCN2CCCC(O)C2)cc1` (stereo not shown) [Example S-17, 2-(2,6-difluorophenyl)-5-(4-(2-(3-hydroxypiperidin-1-yl)ethoxy)phenyl)oxazole-4-carboxamide]: the IC50 on human Aurora A (read-out: Aurora A IC50) and at human FLT4 (read-out: FLT4 IC50) was < 10 µM throughout.

For `NC(=O)c1nc(-c2c(F)cccc2F)oc1-c1ccc(OCCN2CCC(CO)CC2)cc1` [Example S-18, 2-(2,6-difluorophenyl)-5-(4-(2-(4-(hydroxymethyl)piperidin-1-yl)ethoxy)phenyl)oxazole-4-carboxamide], the IC50 on human Aurora A (read-out: Aurora A IC50) and at human FLT4 (read-out: FLT4 IC50) was < 10 µM throughout.

Consider `CCN(CCO)CCOc1ccc(-c2oc(-c3c(F)cccc3F)nc2C(N)=O)cc1` [Example S-19, 2-(2,6-difluorophenyl)-5-(4-(2-(ethyl(2-hydroxyethyl)amino)ethoxy)phenyl)oxazole-4-carboxamide], for which the IC50 at human Aurora A (read-out: Aurora A IC50) and at human FLT4 (read-out: FLT4 IC50) was < 10 µM each time.

On to `CNCCOc1ccc(-c2oc(-c3c(F)cccc3F)nc2C(N)=O)cc1` [Example S-20, 2-(2,6-difluorophenyl)-5-(4-(2-(methylamino)ethoxy)phenyl)oxazole-4-carboxamide], for which the IC50 at human Aurora A (read-out: Aurora A IC50) and on human FLT4 (read-out: FLT4 IC50) was < 10 µM each time.

Regarding `NC(=O)c1nc(-c2c(F)cccc2F)oc1-c1ccc(OCCNCCO)cc1` [Example S-21, 2-(2,6-difluorophenyl)-5-(4-(2-(2-hydroxyethylamino)ethoxy)phenyl)oxazole-4-carboxamide], the IC50 on human Aurora A (read-out: Aurora A IC50) and at human FLT4 (read-out: FLT4 IC50) was < 10 µM in each case.

Regarding `NC(=O)c1nc(-c2c(F)cccc2F)oc1Nc1ccc(C(=O)N2CCOCC2)cc1` [Example U-2, 2-(2,6-difluorophenyl)-5-(4-(morpholine-4-carbonyl)phenylamino)oxazole-4-carboxamide], the IC50 at human Aurora A (read-out: Aurora A IC50) and on human FLT4 (read-out: FLT4 IC50) was < 10 µM each time.

Regarding `CNCCNC(=O)c1ccc(Nc2oc(-c3c(F)cccc3F)nc2C(N)=O)cc1` [Example U-3, 5-(4-((2-(methylamino)ethyl)carbamoyl)phenylamino)-2-(2,6-difluorophenyl) oxazole-4-carboxamide], the IC50 on human Aurora A (read-out: Aurora A IC50) and on human FLT4 (read-out: FLT4 IC50) was < 10 µM each time.

Regarding `CNCCCNC(=O)c1ccc(Nc2oc(-c3c(F)cccc3F)nc2C(N)=O)cc1` [Example U-4, 5-(4-((3-(methylamino)propyl)carbamoyl)phenylamino)-2-(2,6-difluorophenyl) oxazole-4-carboxamide], the half-maximal inhibitory concentration (IC50) on human Aurora A (read-out: Aurora A IC50) and on human FLT4 (read-out: FLT4 IC50) was < 10 µM in each case.

Turning to `NC(=O)c1nc(-c2c(F)cccc2F)oc1Nc1ccc(C(=O)N[C@@H]2CCNC2)cc1` [Example U-6, (R)-2-(2,6-difluorophenyl)-5-(4-(pyrrolidin-3-ylcarbamoyl)phenylamino)oxazole-4-carboxamide], the IC50 on human Aurora A (read-out: Aurora A IC50) and at human FLT4 (read-out: FLT4 IC50) was < 10 µM each time.

As for `NC(=O)c1nc(-c2c(F)cccc2F)oc1Nc1ccc(C(=O)N[C@H]2CCNC2)cc1` [Example U-7, (S)-2-(2,6-difluorophenyl)-5-(4-(pyrrolidin-3-ylcarbamoyl)phenylamino)oxazole-4-carboxamide], the IC50 at human Aurora A (read-out: Aurora A IC50) and on human FLT4 (read-out: FLT4 IC50) was < 10 µM in each case.

Take `CN(C)CCNC(=O)c1ccc(Nc2oc(-c3c(F)cccc3F)nc2C(N)=O)cc1` [Example U-8, 5-(4-((2-(dimethylamino)ethyl)carbamoyl)phenylamino)-2-(2,6-difluorophenyl) oxazole-4-carboxamide]: the IC50 at human Aurora A (read-out: Aurora A IC50) and at human FLT4 (read-out: FLT4 IC50) was < 10 µM each time.

`NC(=O)c1nc(-c2c(F)cccc2F)oc1Nc1ccc(C(=O)NCCN2CCOCC2)cc1` [Example U-9, 5-(4-((2-morpholinoethyl)carbamoyl)phenylamino)-2-(2,6-difluorophenyl)oxazole-4-carboxamide]: the IC50 on human Aurora A (read-out: Aurora A IC50) and at human FLT4 (read-out: FLT4 IC50) was < 10 µM each time.

Consider `NC(=O)c1nc(-c2c(F)cccc2F)oc1Nc1ccc(C(=O)NC2CN3CCC2CC3)cc1` (stereo not shown) [Example U-10, 2-(2,6-difluorophenyl)-5-(4-(quinuclidin-3-ylcarbamoyl)phenylamino)oxazole-4-carboxamide], for which the IC50 at human Aurora A and against human FLT4 was < 10 µM in each case.

`CN1C2CCC1CC(NC(=O)c1ccc(Nc3oc(-c4c(F)cccc4F)nc3C(N)=O)cc1)C2` (stereo not shown) [Example U-11, 5-(4-((8-methyl-8-aza-bicyclo[3.2.1]octan-3-yl)carbamoyl)phenylamino)-2-(2,6-difluorophenyl)oxazole-4-carboxamide]: the half-maximal inhibitory concentration (IC50) on human Aurora A and at human FLT4 was < 10 µM in each case.
